Values after ≈ are worked out from the molar mass of the structure shown. “Also recorded” adds a separate entry of the source. Where two headings read alike, the source gives them in different places.
How the values were obtained:
[1] = cited from earlier work
topoisomerase II = settings: cited from earlier work
L1210 cells = settings: cited from earlier work
[2] = greater than carboxylate form; cited from earlier work
mice = settings: more toxic than SCPT; cited from earlier work
human patients [3] = settings: cited from earlier work
[4] = tested on: topoisomerase I-DNA cleavable complex; settings: cited from earlier work
[5] = tested on: advanced gastrointestinal cancer; settings: cited from earlier work
DNA strand breaks = settings: cited from earlier work
[6] = tested on: human patients with cancer; settings: Phase I and Phase II human trials; cited from earlier work
Topoisomerase I [7] = settings: purified from calf thymus; cited from earlier work
Topoisomerase I [8] = settings: purified from human colon carcinoma cells; cited from earlier work
[9] = animals; cited from earlier work
[10] = Solubility of camptothecin in various solvents; type: physicochemical; settings: for solubility: read-out: Solubility, Concentration
[11] = Lactone form / chemical stability in formulation; type: physicochemical
malignant melanoma = settings: cited from earlier work
[12] = cited from earlier work; remark: listed apart in the source
human patients [13] = settings: cited from earlier work; remark: listed apart in the source
[14] = oral vs intravenous solution; cited from earlier work
[15] = 90-360 mg/m^2 every 2 weeks, fifteen patients
[16] = 15 mg/m^2 × 5, 9 patients treated
[17] = 17 mg/m^2 × 5, 5 patients treated
[18] = 20 mg/m^2 × 5, 10 patients treated
[19] = 5-Day course (27 patients), 4 wks
[20] = 5-Day course (27 patients), 8 wks
[21] = 5-Day course (27 patients), 12 wks
[22] = single dose 110 mg/m^2, 2 patients treated
[23] = single dose 120 mg/m^2, 7 patients treated
[24] = single dose 180 mg/m^2, 9 patients treated
[25] = single-dose method (34 patients), 3 wks
[26] = single-dose method (34 patients), 6 wks
[27] = single-dose method (34 patients), 9 wks
[28] = single-dose method (34 patients), 12 wks

For `CCc1c2c(nc3ccccc13)-c1cc3c(c(=O)n1C2)COC(=O)[C@]3(O)CC` [7-ethyl camptothecin], which Water solubility ([1]; water) is on record?
Its Water solubility is “less than 5 micrograms per milliliter of water”.

For `CCc1c2c(nc3ccc(O)cc13)-c1cc3c(c(=O)n1C2)COC(=O)[C@]3(O)CC` [7-ethyl-10-hydroxy camptothecin], which Water solubility ([1]; water) is on record?
The Water solubility was “less than 5 micrograms per milliliter of water”.

Which Water solubility ([1]; water) does the source give for `CCC1(O)C(=O)OCc2c1cc1n(c2=O)Cc2cc3cc4c(cc3nc2-1)OCO4` (stereo not drawn) [10,11-Methylenedioxy camptothecin, 10,11-methylenedioxy camptothecin] here?
The Water solubility was “less than 5 micrograms per milliliter of water”.

With `CCC1(O)C(=O)OCc2c1cc1n(c2=O)Cc2cc3cc4c(cc3nc2-1)OCCO4` (stereo not drawn) [10,11-ethylenedioxy-camptothecin, 10,11-ethylenedioxy camptothecin] as the molecule, how does the Water solubility ([1]; water) read?
The Water solubility was “less than 5 micrograms per milliliter of water”.

With `CC[C@@]1(O)C(=O)OCc2c1cc1n(c2=O)Cc2cc3ccccc3nc2-1` [Camptothecin, camptothecin] as the molecule, how does the “Effect on topoisomerase II” value (topoisomerase II) read?
The value was “no effect on topoisomerase II”.

What about the “Protein-free DNA breaks” value (L1210 cells) of the same molecule?
Its value is “an increase in unexplained protein-free breaks”.

What about the “Anti-tumor activity of lactone relative to carboxylate form” value [2] of the same molecule?
The value was “greater than 10 fold”.

What about the “Toxicity of lactone form relative to SCPT” value (mice) of the same molecule?
Its value is 10 fold.

What about the Renal excretion (human patients [3]; human, in vivo) of the same molecule?
The Renal excretion was “excreted unchanged by the kidneys”.

What about the “Stabilization of the topoisomerase I cleavable complex, reversibility” value [4] of the same molecule?
Its value is “readily reversible”.

What about the “Clinical value in gastrointestinal cancer (conclusion)” value ([5]; in vivo) of the same molecule?
Its value is “a drug of protean and unpredictable toxicity that has no clinical value in the management of gastrointestinal cancer”.

What about the “Protein-associated DNA single-strand breaks” value (DNA strand breaks) of the same molecule?
Its value is “induces protein-associated DNA single-strand breaks”.

And the “Protein linkage of DNA strand breaks” value (DNA strand breaks; in vitro cells)?
Its value is “Virtually all of the DNA strand breaks observed in vitro cells treated with camptothecin are protein linked”.

And the Water solubility ([1]; lactone form, pH of 2 to 6)?
Its Water solubility is “less than 5 micrograms in one milliliter o”.

What about the “Toxicity in early trials” value [6] of the same molecule?
Its value is “unpredictable myelosuppression and hemorrhagic cystitis”.

What about the “Inhibition of topoisomerase I” value (Topoisomerase I [7]) of the same molecule?
Its value is “inhibited”.

What about the “Inhibition of topoisomerase I” value (Topoisomerase I [8]) of the same molecule?
The value was “inhibited”.

What about the Transport into bile [9] of the same molecule?
Its Transport into bile is “extremely active transport of camptothecin into bile”.

And the “Solubility, Concentration” value ([10]; N-Methyl-2-pyrrolidinone (NMP))?
Its value is 15000 to 20000 µg/mL.

And the solubility ([10]; benzyl alcohol, organic solvent or mixture, Benzyl alcohol)?
The solubility was 1670 µg/mL (≈ 4810 µM).

What about the solubility ([10]; dimethylacetamide, organic solvent or mixture, Dimethylacetamide) of the same molecule?
The solubility was 5000 µg/mL (≈ 14400 µM).

What about the solubility ([10]; dimethylisosorbide, organic solvent or mixture, Dimethylisosorbide) of the same molecule?
Its solubility is 928 µg/mL (≈ 2660 µM).

What about the solubility ([10]; ethanol, organic solvent or mixture, Ethanol) of the same molecule?
The solubility was 51 µg/mL (≈ 146 µM).

What about the solubility ([10]; milli-q water) of the same molecule?
Its solubility is 0.2 µg/mL (≈ 0.574 µM).

And the solubility ([10]; n-methyl-2-pyrrolidinone (nmp), organic solvent or mixture, N-Methyl-2-pyrrolidinone (NMP))?
The solubility was > 15000 µg/mL.

What about the solubility ([10]; peg 300, organic solvent or mixture, PEG 300) of the same molecule?
The solubility was 706 µg/mL (≈ 2030 µM).

And the solubility ([10]; propylene glycol, organic solvent or mixture, Propylene glycol)?
Its solubility is 281 µg/mL (≈ 807 µM).

With `CN1CCCC1=O` [NMP, N-methyl-2-pyrrolidinone] as the molecule, how does the “Chemical reactivity of NMP with HLCD” value [11] read?
The value was “inert with respect to undesirable chemical reactions with HLCD; also recorded: chemically inert with respect to poorly water soluble camptothecins”.

Which results are given for `CC[C@@](O)(C(=O)O)c1cc2n(c(=O)c1CO)Cc1cc3ccccc3nc1-2` [SCPT]?
50% or greater decrease in tumor diameter (malignant melanoma; [15]): None of the patients had a 50% or greater decrease in tumor diameter; Transient tumor regression (malignant melanoma; [15]): Less pronounced transient tumor regression was noted in three patients; Disease in remaining patients (malignant melanoma; 90-360 mg/m^2 every 2 weeks): no change or progression in their disease; Alopecia (malignant melanoma; fifteen patients): 8 patients; Diarrhea (malignant melanoma; fifteen patients): 3 patients; Hemorrhagic cystitis (malignant melanoma; fifteen patients): 1 patients; Myelosuppression (malignant melanoma; fifteen patients): 11 patients; Nausea and vomiting (malignant melanoma; fifteen patients): 9 patients; Plasma camptothecin levels, relation to dose ([12]; 24 hours after SCPT, once daily×5, 6.5-20 mg/m^2/day): plasma camptothecin levels have little relation to the dose given; Severe toxic effects ([12]; patients with obvious renal disease excluded): Severe toxic effects including cystitis occurred; Bladder toxicity, dose limiting (human patients [3]; 20 to 30 mg/m^2): dose limiting in three patients; Bladder toxicity, additional patients (human patients [3]; 44 and 30 mg/m^2): two additional patients; Leukopenia, incidence (human patients [3]; daily treatment, total dose of 100 mg/m^2): four of six patients; Leukopenia, duration (human patients [3]; daily vs weekly treatment): more prolonged after daily treatment than after weekly treatment; Leukopenia (human patients [3]; dose-limiting toxic effect): Reversible leukopenia was the major dose-limiting toxic effect; Clinical benefit (human patients [3]; eight patients with measurable disease, 5-day courses at dose levels associated with toxicity): No clinical benefit was observed; Clinical responses (human patients [3]; weekly courses, evaluable patients): two of ten patients; No. of patients with Cystitis ([5]; 11 mg/m^2 × 5, 2 patients treated): 1 patients; No. of patients with Cystitis [5, 16]: 4 patients; No. of patients with Diarrhea [5, 16]: 1 patients; No. of patients with Cystitis [5, 17]: 2 patients; No. of patients with Diarrhea [5, 17]: 4 patients; No. of patients with Cystitis [5, 18]: 6 patients; No. of patients with Diarrhea [5, 18]: 4 patients; No. of patients with Diarrhea ([5]; 22 mg/m^2 × 5, 1 patient treated): 1 patients; Improvement at 3 months ([5]; 3 months, 61 patients): none showed improvement at 3 months; Objective Responses: Improved [5, 19]: 1 patients; Objective Responses: Stable [5, 19]: 12 patients; Objective Responses: Worse [5, 19]: 14 patients; Objective Responses: Stable [5, 20]: 7 patients; Objective Responses: Worse [5, 20]: 20 patients; Objective Responses: Stable [5, 21]: 6 patients; Objective Responses: Worse [5, 21]: 21 patients; Cystitis (% of 27 patients) ([5]; 5-Day course, P < 0.05): 48%; Cystitis (% of 34 patients) ([5]; Single dose): 24%; Partial objective improvement ([5]; after 2 months (8 or 9 weeks), 61 patients): only two of their 61 patients; Patients with 25%-50% response ([5]; at 3 wks only): 3 patients; Diarrhea, severity and persistence ([5]; higher doses): could be quite severe to the point of fecal incontinence and persistent for as long as 4 weeks; Onset of cystitis after treatment ([5]; in vivo): 7 to 10 days; Severity of toxicity by schedule ([5]; prolonged (5-day) vs single-dose schedule at a given total dose): more prolonged schedule produced more severe toxicity at a given total dose level; No. of patients with Cystitis ([5]; single dose 90 mg/m^2, 10 patients treated): 1 patients; No. of patients with Cystitis ([5]; single dose 100 mg/m^2, 6 patients treated): 2 patients; No. of patients with Cystitis [5, 22]: 1 patients; No. of patients with Diarrhea [5, 22]: 1 patients; No. of patients with Cystitis [5, 23]: 2 patients; No. of patients with Diarrhea [5, 23]: 4 patients; No. of patients with Cystitis [5, 24]: 3 patients; No. of patients with Diarrhea [5, 24]: 2 patients; Objective Responses: Improved [5, 25]: 4 patients; Objective Responses: Stable [5, 25]: 17 patients; Objective Responses: Worse [5, 25]: 13 patients; Objective Responses: Improved [5, 26]: 2 patients; Objective Responses: Stable [5, 26]: 1i; Objective Responses: Worse [5, 26]: 21 patients; Objective Responses: Improved [5, 27]: 2 patients; Objective Responses: Stable [5, 27]: 8 patients; Objective Responses: Worse [5, 27]: 24 patients; Objective Responses: Stable [5, 28]: 6 patients; Objective Responses: Worse [5, 28]: 28 patients; Mean urine recovery of camptothecin, excluding patients with impaired urinary excretion (human patients [13]; 5 patients with impaired urinary excretion excluded, i.v., 2880 min): 22.8%; Urinary appearance of unmetabolized camptothecin (human patients [13]; after i.v. drug administration): unmetabolized camptothecin in high concentrations rapidly appeared in the urine; Mean urine recovery of camptothecin (human patients [13]; first 48 hours, i.v.): 17.4%; Urine recovery of camptothecin (range) (human patients [13]; first 48 hours, i.v.): 3.6-38.9%; Time course of urinary drug excretion (human patients [13]; i.v.): most of the drug excretion occurring in the initial 12 hours; Sterile hemorrhagic cystitis (human patients [13]; moderately dehydrated patients): 3 patients; Antitumor activity in early trials [6]: lack of consistent antitumor activity; Toxicity in early trials [6]: unpredictable and severe myelosuppression,gastrointestinal toxicity, hemorrhagic cystitis, and alopecia

With `COc1cc([C@@H]2c3cc4c(cc3[C@@H](O[C@@H]3O[C@@H]5CO[C@@H](C)O[C@H]5[C@H](O)[C@H]3O)[C@H]3COC(=O)[C@H]23)OCO4)cc(OC)c1O` [etoposide] as the molecule, how does the “Bioavailability following oral administration” value [14] read?
The value was “substantially equivalent to that achieved by intravenous administration”.

Source: patent publication US5726181A, “Formulations and compositions of poorly water soluble camptothecin derivatives” (BioNumerik Pharmaceuticals, Inc., priority 1995, dated 1998)
